Three substances from paper PMC8022858, “Discovery of bone morphogenetic protein 7-derived peptide sequences that attenuate the human osteoarthritic chondrocyte phenotype” (Molecular Therapy. Methods & Clinical Development, 2021) can be followed below.

The subject of this test is human OA knee cartilage explants. In words: Gene expression in OA cartilage explants. In kind it is cell-based. The following applies: n = 7 donors, 24 h, normalized to 28S rRNA, relative to control; BMP7 1 nM (Figure 6A). The protocol:
To determine whether peptide p[63−82] has the potency to alter chondrocyte behavior in cartilage tissue, rather than isolated HACs, cartilage biopsies from OA knees were cultured in the presence of peptide p[63−82], alongside its scrambled version and full-length BMP7.
Figure 6 Peptide p[63−82] activity on OA knee joint tissues Human OA knee joint tissues were cultured for 24 h in the presence of BMP7, peptide p[63−82], or the scrambled version of peptide p[63−82] and compared to control conditions. (A) Cartilage tissues (n = 7 individual donors) were exposed to shown conditions and analyzed for COL2A1, COL10A1, and COX-2 mRNA expression by quantitative real-time PCR (normalized for 28S rRNA expression and relative to control conditions). (B) GAG release in medium from cartilage tissues (n = 5 individual donors) was determined, and data were calculated relative to the control condition. (C) PGE2 levels in culture supernatant from synovium (n = 5 donors). (D) PGE2 levels in culture supernatant from cartilage tissues from (B) (n = 5 donors). (E) PGE2 levels in culture supernatant from IPFP (n = 5 donors). (F) PGE2 levels in culture supernatant from the meniscus. Synovium, IPFP, and meniscus tissues were from the same 5 donors as the cartilage tissues in (B) and (C). PGE2 levels in conditions were calculated relative to controls for each donor. […] Statistical differences (unpaired two-tailed Student’s t test) were calculated to control condition: ∗p < 0.05, ∗∗p < 0.01, and ∗∗∗p < 0.001.
Cartilage was obtained from total knee arthroplasty of end-stage (K&L grades 3−4) OA patients and from resected knee cartilage from cartilage repair procedures of non-OA patients. […] The bioluminescent readout was performed by lysing cells in Passive Lysis Buffer (Promega) and measuring luciferase activity using the Berthold TriStar^2 LB 942 Modular Multimode Microplate Reader using the Luciferase Assay System for firefly luciferase (BRE and CAGA12) (Promega) and the Gaussia Luciferase Kit (New England Biolabs). […]
For “BMP7: full-length recombinant bone morphogenetic protein 7 (R&D Systems), used at 1 nM”, the “COL2A1, COL10A1, and COX-2 mRNA expression in cartilage explants” value is “comparable”.
The value for “H-SEASPAMYYLNATANFYESG-OH [scrambled p[63−82], scrambled version of peptide p[63−82], reference compound]” was “lacked this activity”.
The value for H-AAYYSEGESAFPLNSYMNAT-OH [p[63−82]] was “induce COL2A1 while inhibiting COL10A1 and COX-2 expression”.
